Reference: patent US7871996B2, “Methods of inhibiting nitric oxide synthase using corrin derivatives” (The United States of America as represented by the …, priority 2006, dated 2011)
Structures can show the parent of a compound that is named as a salt.

Tests used:
[1] = molecular target: T1, NOS1 (nNOS) (Homo sapiens, UniProt P29475); assay: NOS1 enzymatic activity: conversion of 14-C-L-arginine to L-citrulline; type: biochemical
T1 construct: made in house
Experimental: (§1) The enzymatic activity of purified NOS1, NOS2, or NOS3 to convert radiolabeled L-arginine to L-citrulline was assessed in presence or absence of different concentrations of (A) hydroxocobalamin, (B) cobinamide, (C) dicyanocobinamide, or (D) cyanocobalamin. Results are expressed as percent inhibition.
(§2) The effect of methylcobalamin (not exposed to light or exposed to light) on nNOS is shown in FIG. 3A; its effect on iNOS is shown in FIG. 3B. The effect of adenosylcobalamin (not exposed to light or exposed to light) on nNOS is shown in FIG. 3C; its effect on iNOS is shown in FIG. 3D. The agents were protected from light or exposed to light for 60 minutes. The enzyme assays were done in near-dark conditions (as low light as possible). Light removes the methyl- or adenosyl-group from the agent resulting in hydroxocobalamin.
(§3) Briefly, cells were treated with 500 units/ml of murine interferon-gamma for 24 hours, incubated with 10 uM DAF-FM for 30 minutes, and washed. Then the cells were then assessed for fluorescence in a platereader fluorimeter. The degree of NO formation is proportional to the degree of fluorescence of DfAF-FM. To determine NOS activity, we incubated 14-C-labeled-L-arginine was at 37° C. with 5 nM recombinant NOS1, NOS2 or NOS3 with HEPES buffer, dithiothreitol, tetrahydrobiopterin, FAD, and NADPH in the absence or presence of different concentrations of the compound in question for 60 minutes (27, 28). The reaction was stopped by adding excess L-citrulline, after which 14-C-labeled L-arginine was separated from 14-C-labeled citrulline using a Dowex-50 column (with the 14-C-labeled L-arginine being bound to the Dowex-50, and 14-C-labeled citrulline eluting free from the column). Radioactivity was determined with a scintillation counter, and percentage NOS inhibition was calculated. We determined that none of the compounds quenched detection of the radioactivity. Spectroscopy was determined using a Hitachi U2010 spectrometer (San Jose, Calif.) as noted before (17, 24, 25).

[2] = molecular target: T2, NOS2 (iNOS) (Homo sapiens, UniProt P35228); assay: NOS2 enzymatic activity: conversion of 14-C-L-arginine to L-citrulline; type: biochemical
T2 construct: made in house
Experimental: as §1, §2, §3

[3] = stated as known; cited from earlier work
[4] = molecular target: T3, purified, recombinant NOS2 (Homo sapiens, UniProt P35228); assay: UV/Vis spectroscopy of CO binding to reduced NOS2 heme; conditions: reduced conditions (dithionite), CO as oxygen mimic
T3 construct: made in house
T3 sequence (P35228 whole entry): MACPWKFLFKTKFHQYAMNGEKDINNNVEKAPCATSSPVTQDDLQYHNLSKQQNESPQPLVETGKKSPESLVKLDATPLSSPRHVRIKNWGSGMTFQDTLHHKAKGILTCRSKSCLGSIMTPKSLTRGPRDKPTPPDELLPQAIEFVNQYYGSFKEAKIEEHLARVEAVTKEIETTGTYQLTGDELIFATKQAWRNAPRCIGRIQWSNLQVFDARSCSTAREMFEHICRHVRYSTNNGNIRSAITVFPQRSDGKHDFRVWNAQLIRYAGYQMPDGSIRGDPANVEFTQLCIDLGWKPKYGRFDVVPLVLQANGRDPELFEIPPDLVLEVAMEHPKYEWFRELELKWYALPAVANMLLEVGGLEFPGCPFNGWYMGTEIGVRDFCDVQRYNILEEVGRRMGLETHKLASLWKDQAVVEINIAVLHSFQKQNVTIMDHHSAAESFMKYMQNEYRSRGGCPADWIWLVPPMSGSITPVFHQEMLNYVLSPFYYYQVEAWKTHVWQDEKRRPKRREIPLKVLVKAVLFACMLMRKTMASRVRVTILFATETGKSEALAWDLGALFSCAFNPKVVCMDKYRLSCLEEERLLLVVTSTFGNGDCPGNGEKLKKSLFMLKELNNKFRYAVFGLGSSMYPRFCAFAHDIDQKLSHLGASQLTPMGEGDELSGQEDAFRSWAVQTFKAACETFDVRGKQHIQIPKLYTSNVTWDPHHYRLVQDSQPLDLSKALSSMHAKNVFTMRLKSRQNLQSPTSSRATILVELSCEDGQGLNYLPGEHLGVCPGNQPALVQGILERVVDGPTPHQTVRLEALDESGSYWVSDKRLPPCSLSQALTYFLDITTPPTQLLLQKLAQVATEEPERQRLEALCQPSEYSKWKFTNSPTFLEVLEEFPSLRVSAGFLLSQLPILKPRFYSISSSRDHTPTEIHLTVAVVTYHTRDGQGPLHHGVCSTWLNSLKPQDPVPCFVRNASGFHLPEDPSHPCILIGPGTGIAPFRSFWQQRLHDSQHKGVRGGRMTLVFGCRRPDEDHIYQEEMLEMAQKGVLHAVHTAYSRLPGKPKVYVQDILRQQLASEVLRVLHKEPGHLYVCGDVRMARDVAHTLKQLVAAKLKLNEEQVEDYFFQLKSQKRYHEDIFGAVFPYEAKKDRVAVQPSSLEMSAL
From the text: Oxygen reacts directly with the reduced iron of the heme group in NOS. Carbon monoxide (CO) (that simulates O2 in binding to the reduced iron) was used to determine the influence of CN2-Cbi on oxygen binding to NOS. The reaction of purified NOS2 with CO in a reduced state (dithionite) markedly changed the UV/Vis spectrum, with appearance of the typical CO-bound Fe^+2-heme peak at 445 nm (FIG. 4A). However, in the presence of CN2-Cbi, there was no appearance of the 445 nm peak induced by CO in a reduced state (FIG. 4B).
Briefly, cells were treated with 500 units/ml of murine interferon-gamma for 24 hours, incubated with 10 uM DAF-FM for 30 minutes, and washed. Then the cells were then assessed for fluorescence in a platereader fluorimeter. The degree of NO formation is proportional to the degree of fluorescence of DfAF-FM. […] Radioactivity was determined with a scintillation counter, and percentage NOS inhibition was calculated. We determined that none of the compounds quenched detection of the radioactivity. Spectroscopy was determined using a Hitachi U2010 spectrometer (San Jose, Calif.) as noted before (17, 24, 25). […]

[5] = system: J774 cells; assay: NO formation by activated J774 mouse macrophage cells; type: cell-based; conditions: interferon-gamma and endotoxin, 3 days, 0 to 62.5 uM
Experimental: (§4) Cells of the mouse macrophage cell line J774 were incubated 3 days with 10 ng/ml endotoxin and 100 units/ml murine interferon gamma to activate the macrophage-like cells for NO production. The cultures also contained 0 to 62.5 uM dicyanocobinamide for the 3 days. At the end of the culture period, supernatant cell NO production was determined. […] Cells of the mouse macrophage cell line Raw 264 were incubated 24 hours with 100 units/ml murine interferon gamma to activate the macrophage-like cells for NO production. The cultures also contained 0, 0.5, 2.0, or 8.0 uM dicyanocobinamide for the entire culture period. At the end of the culture period the cells were assessed for NO production using DAF-MN and a fluorimeter. Results are expressed as percent inhibition. The error bars show the SEM.
We prepared highly purified, recombinant NOS1 and NOS2 (24,25). Recombinant bovine NOS3 was purchased from Cayman (Ann Arbor, Mich.). Tetrahydrobiopterin and carboxy-PTIO {2-(4-Carboxyphenyl)-4,4,5,5-tetramethylimidazoline-1-oxyl-3-oxide (potassium salt)} were from Alexis (San Diego, Calif.). 14-C-labeled L-arginine and 14-C-labeled citrulline were from Amersham/GE Healthcare (Waukesha, Wis.). […] NO levels were measured using a “Nitric Oxide Analyzer” (Sievers, Boulder, Colo.) or using diaminofluorescein-FM (4-amino-5-methylamino-2′,7′-difluorofluorescein) from Invitrogen-Molecular Probes.

[6] = UV/Vis spectroscopy of reaction of agent with NO; type: binding
Experimental: NO reacts with OH-Cbl as indicated by the change in the UV/Vis spectrum (shift of peak from 352 nm to 354-355 nm, and alteration in the 520 nm region).
as §3, with “25). […]” for “25).”

[7] = system: Raw 264 cells; assay: NO formation by activated Raw 264 mouse macrophage cells (DAF-FM fluorescence); type: cell-based; conditions: interferon-gamma, 24 hours, 0, 0.5, 2.0, or 8.0 uM
Experimental: as §4
We prepared highly purified, recombinant NOS1 and NOS2 (24,25). […] NO levels were measured using a “Nitric Oxide Analyzer” (Sievers, Boulder, Colo.) or using diaminofluorescein-FM (4-amino-5-methylamino-2′,7′-difluorofluorescein) from Invitrogen-Molecular Probes.
Briefly, cells were treated with 500 units/ml of murine interferon-gamma for 24 hours, incubated with 10 uM DAF-FM for 30 minutes, and washed. Then the cells were then assessed for fluorescence in a platereader fluorimeter. The degree of NO formation is proportional to the degree of fluorescence of DfAF-FM. […]

[8] = after light illumination of the agent

For C/C1=C2/[N-][C@H]([C@H](CC(N)=O)[C@@]2(C)CCC(=O)NC[C@@H](C)OP(=O)([O-])O[C@H]2[C@@H](O)[C@@H](n3cnc4cc(C)c(C)cc43)O[C@@H]2CO)[C@]2(C)N=C(/C(C)=C3N=C(/C=C4N=C1[C@@H](CCC(N)=O)C\4(C)C)[C@@H](CCC(N)=O)[C@]\3(C)CC(N)=O)[C@@H](CCC(N)=O)[C@]2(C)CC(N)=O.[CH2-][C@H]1O[C@@H](n2cnc3c(N)ncnc32)[C@H](O)[C@@H]1O.[Co] [Adenosylcobalamin], the “NOS1 inhibition (in words)” value [1, 8] was “inhibitory activity (comparable to native OH-Cbl)”, the “NOS1 inhibition (in words)” value ([1]; agent not exposed to light) was “very little ability to inhibit NOS activity” and the “NOS2 inhibition (in words)” value [2, 8] was “inhibitory activity (comparable to native OH-Cbl)”. The “NOS2 inhibition (in words)” value ([2]; agent not exposed to light) was “very little ability to inhibit NOS activity”.

For CC1(C)N([O])C(c2ccc(C(=O)O)cc2)=[N+]([O-])C1(C)C [Carboxy-PTIO, 2-(4-Carboxyphenyl)-4,4,5,5-tetramethylimidazoline-1-oxyl-3-oxide (potassium salt)], the “NOS1 inhibition (in words)” value ([1]; purified recombinant NOS1) was “does not inhibit NOS”, the EC50 ([1]; purified recombinant NOS1, 5 nM, 60 minutes, 37° C., read-out: ED50 NOS1) was 1.36 mM and the “NOS2 inhibition (in words)” value ([2]; purified recombinant NOS2) was “does not inhibit NOS”. It also gave an EC50 ([2]; purified recombinant NOS2, 5 nM, 60 minutes, 37° C., read-out: ED50 NOS2) of 1.36 mM.

In the case of C/C1=C2/[N-][C@H]([C@H](CC(N)=O)[C@@]2(C)CCC(=O)NC[C@@H](C)O)[C@]2(C)N=C(/C(C)=C3N=C(/C=C4N=C1[C@@H](CCC(N)=O)C\4(C)C)[C@@H](CCC(N)=O)[C@]\3(C)CC(N)=O)[C@@H](CCC(N)=O)[C@]2(C)CC(N)=O.[Co+3] [Cobinamide], the “NOS1 inhibition (in words)” value ([1]; purified recombinant NOS1) is given as “potent”, the “ability to bind and scavenge NO” value [3] is given as “able to bind and scavenge NO” and the “NOS2 inhibition (in words)” value ([2]; purified recombinant NOS2) is given as “potent”.

In the case of C/C1=C2/[N-]C([C@H](CC(N)=O)[C@@]2(C)CCC(=O)NCC(C)O)[C@]2(C)N=C(/C(C)=C3N=C(/C=C4N=C1[C@@H](CCC(N)=O)C\4(C)C)[C@@H](CCC(N)=O)[C@]\3(C)CC(N)=O)[C@@H](CCC(N)=O)[C@]2(C)CC(N)=O.[C-]#N.[C-]#N.[Co] (stereo partly drawn) [Dicyanocobinamide], the “CO-induced spectral changes in NOS2 (445 nm peak)” value [4] is reported as “markedly diminished”, the “NOS1 inhibition (in words)” value ([1]; purified recombinant NOS1) is reported as “potent” and the “inhibition of NO production” value [5] is reported as “dose-dependent inhibition”. The “NOS2 inhibition (in words)” value ([2]; purified recombinant NOS2) was “potent”, the “reaction with NO (change in UV/visible spectrum)” value [6] was “did not react” and the “inhibition of NO production” value [7] was “dose-dependent inhibition”.

In the case of C/C1=C2/[N-][C@H]([C@H](CC(N)=O)[C@@]2(C)CCC(=O)NC[C@@H](C)OP(=O)([O-])O[C@H]2[C@@H](O)[C@@H](n3cnc4cc(C)c(C)cc43)O[C@@H]2CO)[C@]2(C)N=C(/C(C)=C3N=C(/C=C4N=C1[C@@H](CCC(N)=O)C\4(C)C)[C@@H](CCC(N)=O)[C@]\3(C)CC(N)=O)[C@@H](CCC(N)=O)[C@]2(C)CC(N)=O.[Co+3].[OH-] [Hydroxocobalamin], the “NOS1 inhibition (in words)” value ([1]; purified recombinant NOS1) is given as “potent”, the “ability to bind and scavenge NO” value [3] is given as “able to bind and scavenge NO” and the “NOS2 inhibition (in words)” value ([2]; purified recombinant NOS2) is given as “potent”. For the same molecule, the “reaction with NO (change in UV/visible spectrum)” value [6] was “reacted”.

For C/C1=C2/[N-][C@H]([C@H](CC(N)=O)[C@@]2(C)CCC(=O)NC[C@H](C)OP(=O)([O-])O[C@H]2[C@@H](O)[C@@H](n3cnc4cc(C)c(C)cc43)O[C@@H]2CO)[C@]2(C)N=C(/C(C)=C3N=C(/C=C4N=C1[C@@H](CCC(N)=O)C\4(C)C)[C@@H](CCC(N)=O)[C@]\3(C)CC(N)=O)[C@@H](CCC(N)=O)[C@]2(C)CC(N)=O.[CH3-].[Co+3] [Methylcobalamin], the “NOS1 inhibition (in words)” value [1, 8] was “inhibitory activity (comparable to native OH-Cbl)”, the “NOS1 inhibition (in words)” value ([1]; agent not exposed to light) was “very little ability to inhibit NOS activity” and the “NOS2 inhibition (in words)” value [2, 8] was “inhibitory activity (comparable to native OH-Cbl)”. The “NOS2 inhibition (in words)” value ([2]; agent not exposed to light) was “very little ability to inhibit NOS activity”.

With Cyanocobalamin the “NOS1 inhibition (in words)” value ([1]; purified recombinant NOS1) was “much less activity” and the “NOS2 inhibition (in words)” value ([2]; purified recombinant NOS2) was “much less activity”.
